# PubChem BioAssay AID179 (DTP/NCI, 2004)
# Where “and” joins values, the source holds several entries; their conditions need not be identical. Equal values may be shown once. Calls of active or inactive are those of the source.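 The calls were made as follows: active = compounds giving half or more protection of infected cells from virus-caused growth loss, again on retest; inactive = the rest.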
# System: CEM cells HIV-1 protection, formazan growth assay
# Assay: NCI AIDS Antiviral Assay
# Details: for IC50: measured here: growth of uninfected CEM cells
# Method in brief: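 Five concentrations of each compound were applied to infected and uninfected human CEM cells. Protection from HIV-1 was judged from growth measured with a soluble formazan assay.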
Structure (SMILES),EC50,IC50,outcome
O=C1N=C2Sc3ccc4ccccc4c3N2C1=O,> 355 µM,182 µM,
Cn1c2c(c3ccccc31)CCN1OCC=C[C@@H](C(=O)O)[C@@H]21,> 200 µM,> 200 µM,
CC(C)C1CO[C@]2(C)CCC(=O)N12 (stereo partly drawn),> 1350 µM,> 1350 µM,
COC(=O)c1ncn(C2CCCCC2)c1O,> 200 µM,> 200 µM,
Cc1cccc(C)c1OC(F)(F)c1nc2ccccc2o1,> 200 µM,30.2 µM,
O=[N+]1ON=C(c2ccccc2)C1=C1C(c2c(-c3ccccc3)no[n+]2[O-])=NON1[O-],> 200 µM,6.03 µM,
COc1ccc(-c2c(N)n(-c3cccc(C(=O)O)c3)c(=O)c3cc([N+](=O)[O-])ccc23)cc1,> 200 µM,129 µM,
CCCc1cc(=O)oc2c3c(cc(OC)c12)O[C@H](C)[C@@H](C)[C@@H]3O,> 200 µM,,
C[C@]12CC(O)C3[C@@H](CC=C4CC(O)CC[C@@]43C)C1CCC2O (stereo partly drawn),,,inactive
NCCNCc1c2ccccc2c(CNCCN)c2ccccc12,> 95.5 µM,7.94 µM,
CC1CCCCC12NC(=O)NC2=O (stereo not drawn),> 200 µM,> 200 µM,
CCCCCC1c2c(cc(C)[nH]c2=O)OC(O)C1CCCC (stereo not drawn),> 126 µM,> 126 µM,
CCOC(=O)C(/C=N/C(=S)Nc1ccc(S(=O)(=O)Nc2ccccn2)cc1)=C(/O)c1ccccc1,> 200 µM,135 µM,
CCOP(=O)(CCP(=O)(OCC)OCC)OCC.C[CH2][Sn]([Cl])([Cl])[CH2]C,,,inactive
ClCCNCCNCCCl.O=c1cccccc1[O-].O=c1cccccc1[O-].[Co+3].[O-][Cl+3]([O-])([O-])[O-],> 200 µM,5.01 µM,
CN(C)c1ccc(C=C2C(=O)OC(C)(C)OC2=O)cc1,,,inactive
C=CC(C)(C)[C@@]12CC3C(=O)N[C@@H](CC(C)C)C(=O)N3[C@@H]1N(C(C)=O)c1ccccc12 (stereo partly drawn),> 30.2 µM,> 30.2 µM,
[N-]=[N+]=CC(=O)OC1CCOCC1,> 200 µM,> 200 µM,
CCOC(=O)/C=C1\Oc2ccccc2C1(C)O (stereo not drawn),> 562 µM,> 562 µM,
O=C(Nc1ncnc2c1ncn2C1OC(CO)CC1F)c1ccccc1 (stereo not drawn),,,inactive
Cc1cc(C)nc(NS(=O)(=O)c2ccc(NC(=O)c3ccccc3SC(=O)CCCC[n+]3ccccc3)cc2)n1,17 µM,51.3 µM,
COc1ccccc1OS(=O)(=O)c1ccc(C)cc1,,,inactive
O=Cc1ccc(-c2cccs2)s1,,,inactive

Structure (SMILES),EC50,IC50,outcome
O=[N+]([O-])/N=c1/nc2scc(-c3ccc([N+](=O)[O-])cc3)n2s1,> 200 µM,29.5 µM,
COC1(OC)CCC2(C)OC(c3ccccc3)C1O2 (stereo not drawn),,,inactive
COc1cc2c(cc1OC)[C@@H](C(O)c1ccccc1)NCC2 (stereo partly drawn),,,inactive
O=C(O)c1c2c(cc3c1CC(Cc1ccccc1)C3=O)CCC2 (stereo not drawn),> 200 µM,64.6 µM,
CC(C)N(C(C)C)P(OCCC#N)OC1CC(n2cnc3c(=O)[nH]cnc32)OC1COC(=O)NCCCCCCNC(=O)OC(C)(C)c1ccc(-c2ccccc2)cc1 (stereo not drawn),> 8.71 µM,> 8.71 µM,
COc1ccccc1/C=C1\C(=O)N(C(=O)Cc2ccccc2)N=C1C,> 15.5 µM,> 15.5 µM,
Nc1nc(Cl)c(CO)c(NCC2(CO)CC(CCc3ccccc3)C2)n1 (stereo not drawn),> 20 µM,0.129 µM,
O=c1c2cc(Cl)ccc2sc2cccc(Cl)c12,> 1.35 µM,> 1.35 µM,
O=c1[nH]c2cc([N+](=O)[O-])ccc2nc1/C=C(\O)c1ccc(Cl)cc1,> 100 µM,87.1 µM,
S=C1NCCS1,> 2090 µM,1170 µM,
Cc1ccc(/C=N/n2c(-c3ccc(C)cc3)n[nH]c2=O)cc1,> 200 µM,> 200 µM,
NNC(=O)c1cc(=O)[nH][nH]1,> 200 µM,> 200 µM,
CC(=O)OC1(C(C)=O)CC2(c3ccccc3)OC1(c1ccccc1)c1ccccc12 (stereo not drawn),,,inactive
COC(=O)c1ccccc1C1CN=NC12Cc1ccccc1C2=O (stereo not drawn),> 200 µM,120 µM,
Nn1c(=S)[nH]n2cnnc12,> 1580 µM,186 µM,
Cc1ccc(N(C(=O)CC(=O)N2N=C(c3ccccc3)C(N=Nc3ccc([N+](=O)[O-])cc3)C2=O)C(=O)c2ccc(Cl)cc2)cc1 (stereo not drawn),> 11.5 µM,9.12 µM,
C[C@]12C[C@H](c3ccccc3)Nc3ccccc3N1C(c1ccccc1)=NO2,> 200 µM,36.3 µM,
CSc1nc(N)cc(C(F)(F)F)n1,> 200 µM,> 200 µM,
CC(=O)NC(CCCN(Cc1ccccc1)C(=O)N(C)N=O)C(=O)NCc1ccccc1 (stereo not drawn),> 112 µM,> 112 µM,
O=c1c(-c2ccc3c(c2)OCO3)coc2cc(O)ccc12,> 200 µM,> 200 µM,
CC(=O)OC1CCn2nnc(CO[Si](C)(C)C(C)(C)C)c21 (stereo not drawn),,,inactive
O=C(O)C1=CC=CC(=C(c2ccc(O)c(C(=O)O)c2)c2ccc(O)c(C(=O)O)c2)C1=O,> 380 µM,> 380 µM,
COc1ccc(/C=C(\Cl)c2ccc(OC)c(OC)c2)cc1OC,56.2 µM,> 200 µM,

Structure (SMILES),EC50,IC50,outcome
COc1ccc2cc1Oc1ccc(cc1)C[C@H]1c3cc(c(OC)cc3CCN1C)Oc1c(O)c(OC)cc3c1[C@H](C2)N(C)CC3,,,inactive
N=C(N)n1[nH]c2c(c1=O)CCC2,> 200 µM,> 200 µM,
C/C(NNC(=O)c1ccccc1O)=C1\C=Nc2ccccc2S1,> 15.8 µM,0.0794 µM,
COc1ccc(Cl)cc1C(=O)c1cc(Cl)cc(S(=O)(=O)N(C)C)c1OC,> 9.12 µM,8.13 µM,
CC(=O)n1c2ccccc2c2nc3nc(Oc4ccc(C)cc4)c4ccccc4c3cc21,> 6.61 µM,> 6.61 µM,
CC(Oc1ccc(OCC2CCCCC2)cc1)C(=O)N(CCO)CCO (stereo not drawn),> 692 µM,44.7 µM,
Cn1c2ccccc2c2nc3ccccc3c(Cl)c21,> 200 µM,135 µM,
CC1NOC(=O)C1N=Nc1cccc(Cl)c1 (stereo not drawn),5.25 µM,30.2 µM,
O=C(O)c1nc2ccc(C(F)(F)F)cc2nc1NCc1ccc(Cl)c(Cl)c1,> 200 µM,19.1 µM,
O=C1CN(S(=O)(=O)c2ccc([N+](=O)[O-])cc2)CC(=O)CN(S(=O)(=O)c2ccc([N+](=O)[O-])cc2)CC(=O)CN(S(=O)(=O)c2ccc([N+](=O)[O-])cc2)C1,> 200 µM,> 200 µM,
CCCC(=O)[O-].N.N.N.N.N.[Co+3].[O-][Cl+3]([O-])([O-])[O-],,,inactive
COC1OC2COC1(OC)C1OC(C)(C)OC21 (stereo not drawn),> 200 µM,> 200 µM,
Fc1ccccc1-c1nn2c(C34CC5CC(CC(C5)C3)C4)nnc2s1,> 200 µM,> 200 µM,
Cc1cccc2c1C(=O)N(CC[P+](c1ccccc1)(c1ccccc1)c1ccccc1)C2=O,> 200 µM,7.94 µM,
CC(C)CCCC(C)C1CCC2C3CC[C@H]4C[C@@H](NC(=O)C=C(c5cc(Cl)c(O)c(C(=O)O)c5)c5cc(Cl)c(O)c(C(=O)O)c5)CC[C@]4(C)C3CC[C@]12C (stereo partly drawn),56.2 µM,97.7 µM,
Clc1ccccc1C1SCc2nc3ncccc3n21 (stereo not drawn),> 91.2 µM,67.6 µM,
Cc1c(/C=N/NS(=O)(=O)c2ccccc2)no[n+]1[O-],> 891 µM,> 200 µM,
COC(=O)C(c1[nH]nc2ccccc12)C(C(=O)OC)c1[nH]nc2ccccc12 (stereo not drawn),,,inactive
COc1ccccc1C1C(C(=O)Nc2ccccc2)=C(C)NC(C)=C1C(=O)Nc1ccccc1,> 21.9 µM,> 21.9 µM,
COc1ccccc1NC(=S)N=Nc1c(O)[nH]c2ccccc12,> 200 µM,174 µM,
Cc1ccc2c(c1)N=Cc1ccccc1O2,> 174 µM,10.7 µM,
COc1cccc(-c2c(C#N)c(N)nc3c2CCS(=O)(=O)c2ccc(C)cc2-3)c1,> 200 µM,> 200 µM,
CCC(C)SSc1ccccc1C(=O)Nc1ccc(Cl)cc1 (stereo not drawn),> 200 µM,0.776 µM,

Structure (SMILES),EC50,IC50,outcome
CC1=C2CCCC2=C/C(=N/Nc2ccc([N+](=O)[O-])cc2[N+](=O)[O-])CC1,,,inactive
N#C/C(=C\c1cc(Cl)cc(Cl)c1O)c1ccc([N+](=O)[O-])cc1,> 100 µM,14.1 µM,
CN1CCC(O)(c2ccc(F)cc2)C(C(=O)c2ccc(F)cc2)C1 (stereo not drawn),> 200 µM,72.4 µM,
CC(=O)OC1CCC2OOC1O2 (stereo not drawn),,,inactive
S=c1nn[nH]c2ccccc12,> 219 µM,> 219 µM,
COC(=O)CCSSCCC(=O)OC,> 1050 µM,182 µM,
COC1CCC(CO)OO1 (stereo not drawn),> 200 µM,3.09 µM,
CCOC(=O)C(NC(=O)c1ccccc1)[CH](C)[Sn]([c]1ccccc1)([c]1ccccc1)[c]1ccccc1 (stereo not drawn),> 200 µM,13.5 µM,
O=C1NC(N/N=C\C(O)C(O)C(O)C(O)CO)=N/C1=C/c1ccc(Cl)cc1 (stereo not drawn),> 200 µM,61.7 µM and 37.2 µM,
Cc1noc2c1C(=O)CCC2,> 1660 µM,148 µM,
Nc1ccc(C(=O)NN2C(=O)C(Cl)C2c2ccccc2)cc1 (stereo not drawn),> 200 µM,47.9 µM,
OCC(O)CNc1ccnc2cc(Cl)ccc12 (stereo not drawn),> 631 µM,117 µM,
Cc1ccccc1NC(=O)C(=O)C(C(=O)c1ccccc1F)C1OC(=O)c2ccccc21 (stereo not drawn),> 302 µM,51.3 µM,
Nc1cc2c3c(c1)Oc1cc(N)cc4c1C3c1c(cc(N)cc1O4)O2,> 30.9 µM,23.4 µM,
COC(=O)C(=O)CC(=O)CCn1ncc(Cl)c(Cl)c1=O,> 776 µM,4.07 µM,
Cc1ccc(C)c(NC(=O)C(=O)C(C(=O)c2ccc3ccccc3c2)C2OC(=O)c3ccccc32)c1 (stereo not drawn),> 53.7 µM,23.4 µM,
Nc1ncnc2c1sc1nc3ccccc3n12,> 200 µM,> 200 µM,
COc1c(OC)c(OC)c2c(c1OC)OC(c1ccc(O)cc1)CC2=O (stereo not drawn),> 200 µM,28.8 µM,
N#CC(NNC(=O)c1ccccc1O)c1ccccc1O (stereo not drawn),> 91.2 µM,1.58 µM,
O=[N+]([O-])c1ccc2c(c1)OCCOCCOc1ccc([N+](=O)[O-])cc1OCCOCCO2,,,inactive
[N-]=[N+]=Nc1c(Cl)c(Cl)nc2ccccc12,> 200 µM,61.7 µM,
